Results as given in ChEMBL document CHEMBL5543174, “A Nonbactericidal Anionic Antimicrobial Peptide Provides Prophylactic and Therapeutic Efficacies against Bacterial Infections in Mice by Immunomodulatory-Antithrombotic Duality” (J Med Chem, 2024).
Activity calls are given as the source filed them. The calls are words filed in the database; no cut-off is given here.

Experiments:
Acinetobacter junii = assay: Antimicrobial activity against Acinetobacter junii ATCC 17908 assessed as inhibition of microbial growth at <= 200 ug/ml incubated for 18 hrs by micro-broth dilution method; type: functional, organism-based; details: dose <= 200.0 µg/ml
Candida albicans = assay: Antimicrobial activity against Candida albicans ATCC 2002 assessed as reduction in metabolic activity at < 200 ug/ml incubated for 1 to 4 hrs by CCK-8 assay; type: functional, organism-based; details: dose < 200.0 µg/ml, time 1-4 hrs
Staphylococcus aureus [1] = assay: Antibacterial activity against Methicillin-resistant Staphylococcus aureus infected in C57BL/6 mouse assessed as reduction in IL-6 level in peritoneal fluid at 10 mg/kg,ip administrated 5 hrs after bacterial infection measured after 24 hrs by ELISA; type: functional, organism-based; details: time 19.0 hrs
Staphylococcus aureus [2] = assay: Antibacterial activity against Methicillin-resistant Staphylococcus aureus infected in C57BL/6 mouse assessed as reduction in IL-1beta level in peritoneal fluid at 10 mg/kg,ip administrated 5 hrs after bacterial infection measured after 24 hrs by ELISA; type: functional, organism-based; details: time 19.0 hrs
Escherichia coli [3] = assay: Antibacterial activity against Carbapenem-resistant Escherichia coli infected in C57BL/6 mouse assessed as reduction in IL-1beta level in peritoneal fluid at 10 mg/kg,ip administrated 5 hrs after bacterial infection measured after 24 hrs by ELISA; type: functional, organism-based; details: time 19.0 hrs
Staphylococcus aureus [4] = assay: Antibacterial activity against Staphylococcus aureus ATCC 25923 infected in C57BL/6 mouse assessed as reduction in TNF-alpha level in serum at 10 mg/kg,ip administrated 5 hrs after bacterial infection measured after 24 hrs by ELISA; type: functional, organism-based; details: time 19.0 hrs
Escherichia coli [5] = assay: Antibacterial activity against Escherichia coli ATCC 25922 infected in C57BL/6 mouse assessed as reduction in IL-6 level in serum at 10 mg/kg,ip pre-administrated 5 hrs before bacterial infection measured after 24 hrs by ELISA; type: functional, organism-based; details: time 29.0 hrs
Escherichia coli [6] = assay: Antibacterial activity against Carbapenem-resistant Escherichia coli infected in C57BL/6 mouse assessed as reduction in TNF-alpha level in serum at 10 mg/kg,ip administrated 5 hrs after bacterial infection measured after 24 hrs by ELISA; type: functional, organism-based; details: time 19.0 hrs
Escherichia coli [7] = assay: Antibacterial activity against Carbapenem-resistant Escherichia coli infected in C57BL/6 mouse assessed as reduction in IL-6 level in serum at 10 mg/kg,ip administrated 5 hrs after bacterial infection measured after 24 hrs by ELISA; type: functional, organism-based; details: time 19.0 hrs
Escherichia coli [8] = assay: Antibacterial activity against Carbapenem-resistant Escherichia coli infected in C57BL/6 mouse assessed as reduction in inflammatory injury in lung at 10 mg/kg,ip administrated 5 hrs after bacterial infection measured after 24 hrs by hematoxylin and eosin staining based analysis; type: functional, organism-based; details: time 19.0 hrs
Staphylococcus aureus [9] = assay: Antibacterial activity against Staphylococcus aureus ATCC 25923 infected in C57BL/6 mouse assessed as increase in survival rate at 10 mg/kg,ip pre-administrated 5 hrs before bacterial infection measured after 7 days; type: functional, organism-based; details: time 7.0 day
Escherichia coli [10] = assay: Antibacterial activity against Carbapenem-resistant Escherichia coli infected in C57BL/6 mouse assessed as increase in survival rate at 10 mg/kg,ip pre-administrated 5 hrs before bacterial infection measured after 7 days; type: functional, organism-based; details: time 7.0 day
Staphylococcus aureus [11] = assay: Antibacterial activity against Methicillin-resistant Staphylococcus aureus infected in C57BL/6 mouse assessed as increase in survival rate at 10 mg/kg,ip administrated 5 hrs after bacterial infection measured after 7 days; type: functional, organism-based; details: time 7.0 day
Mus musculus [12] = assay: Immunomodulatory activity in cyclophosphamide immunosuppressed C57BL/6 mouse with neutrophil depletion model assessed as increase in number of neutrophil in peritoneal lavage at 10 mg/kg,ip administration measured after 5 hrs by flow cytometry; type: functional, organism-based
Mus musculus [13] = assay: Immunomodulatory activity in clodronate liposome immunosuppressed C57BL/6 mouse with monocyte depletion model assessed as increase in number of monocyte in peritoneal lavage at 10 mg/kg,ip administration measured after 5 hrs by flow cytometry; type: functional, organism-based
Mus musculus [14] = assay: Immunomodulatory activity in clodronate liposome immunosuppressed C57BL/6 mouse with monocyte depletion model assessed as increase in number of monocyte in peritoneal lavage at 10 mg/kg,ip administration measured after 24 hrs by flow cytometry; type: functional, organism-based
Mus musculus [15] = assay: Immunomodulatory activity in clodronate liposome immunosuppressed C57BL/6 mouse with neutrophil depletion model assessed as change in B-lymphocytes in peritoneal lavage at 10 mg/kg,ip administration measured after 5 to 24 hrs by flow cytometry; type: functional, organism-based; details: time 5-24 hrs
Peritoneal macrophage [16] = assay: Induction of chemotaxis in mouse Peritoneal macrophage assessed as upregulation of CXCL1 gene expression incubated for 6 hrs by qPCR analysis; type: functional, cell-based
[17] = system: Peritoneal macrophage cell; assay: Induction of chemotaxis in mouse Peritoneal macrophage assessed as upregulation of IL-1beta expression at 25 to 100 ug/ml incubated for 6 hrs by ELISA; type: functional, cell-based; details: dose 25-100 µg/ml
Mus musculus [18] = assay: Induction of chemotaxis in C57BL/6 mouse assessed as upregulation of CXCL1 expression in peritoneal lavage at 10 mg/kg,ip administration measured at 5 to 24 hrs by ELISA; type: functional, organism-based; details: time 5-24 hrs
Peritoneal macrophage [19] = assay: Immunomodulatory activity in mouse Peritoneal macrophage assessed as decrease in LTA-induced IL-1beta production at 25 to 100 ug/ml incubated for 6 hrs by ELISA; type: functional, cell-based; details: dose 25-100 µg/ml
[20] = system: Peritoneal macrophage cell; assay: Induction of phagocytosis in mouse Peritoneal macrophage assessed as increase in neutral red dye uptake by measuring optical density absorbance at 50 ug/ml incubated for 24 hrs followed by dye addition measured after 4 hrs by absorbance based assay (reference value: 0.089); type: functional; details: dose 50 µg/ml; time 28 hrs
[21] = system: Peritoneal macrophage cell; assay: Induction of ROS production in mouse Peritoneal macrophage incubated for 6 hrs by DCFA-DA staining based flow cytometry; type: functional, cell-based
Neutrophil [22] = assay: Induction of chemotaxis in mouse bone marrow derived neutrophil assessed as increase in neutrophil migration at 25 to 100 ug/ml incubated for 8 hrs by crystal violet staining based direct transwell assay; type: functional, cell-based; details: dose 25-100 µg/ml
Neutrophil [23] = assay: Induction of degranulation in mouse bone marrow derived neutrophil assessed as increase in MMP-9 release at 25 to 100 ug/ml incubated for 6 hrs by ELISA; type: functional, cell-based; details: dose 25-100 µg/ml
Neutrophil [24] = assay: Induction of chemotaxis in mouse bone marrow derived neutrophil assessed as increase in neutrophil migration at 100 ug/ml preincubated with PTX for 30 mins followed by compound addition measured after 8 hrs by crystal violet staining based indirect transwell assay; type: functional, cell-based; details: dose 100.0 µg/ml
[25] = system: Peritoneal macrophage cell; assay: Induction of chemotaxis in mouse Peritoneal macrophage assessed as upregulation of MCP-1 production at 100 ug/ml preincubated with WRW4 followed by compound addition by ELISA; type: functional, cell-based; details: dose 100.0 µg/ml
Mus musculus [26] = assay: Inhibition of fibrin formation in mouse infected with Methicillin-resistant Staphylococcus aureus assessed as reduction in fibrin deposition in lung at 10 mg/kg,ip administrated 5 hrs after bacterial infection measured after 24 hrs by immunohistochemical analysis; type: functional, organism-based; details: time 19.0 hrs
Mus musculus [27] = assay: Anticoagulation activity in mouse infected with Methicillin-resistant Staphylococcus aureus assessed as increase in plasma APC expression at 10 mg/kg,ip administrated 5 hrs after bacterial infection measured after 24 hrs by ELISA; type: functional, organism-based; details: time 19.0 hrs
Mus musculus [28] = assay: Anticoagulation activity in mouse infected with Carbapenem-resistant Escherichia coli assessed as increase in plasma AT-III expression at 10 mg/kg,ip pre-administrated 5 hrs before bacterial infection measured after 24 hrs by ELISA; type: functional, organism-based; details: time 29.0 hrs

`CC[C@H](C)[C@H](NC(=O)[C@@H]1CSSC[C@H](NC(=O)[C@H](CCC(=O)O)NC(=O)[C@@H](NC(=O)[C@H](CCCCN)NC(=O)[C@H](Cc2c[nH]cn2)NC(=O)[C@@H](NC(=O)[C@H](CCCCN)NC(=O)[C@H](CCC(=O)O)NC(=O)[C@H](C)NC(=O)[C@H](CCC(=O)O)NC(=O)[C@H](CCC(=O)O)NC(=O)[C@H](CCC(=O)O)NC(=O)[C@H](C)N)[C@@H](C)O)[C@@H](C)O)C(=O)N[C@@H](CC(C)C)C(=O)N[C@@H](CCC(=O)O)C(=O)N1)C(=O)N[C@@H](Cc1ccccc1)C(=O)N[C@H](C(=O)N[C@@H](CC(C)C)C(=O)N[C@@H](CC(C)C)C(=O)N1CCC[C@H]1C(=O)N1CCC[C@@H]1C(=O)N[C@H](C)C(=O)O)[C@@H](C)O` was tested, and the Activity (Acinetobacter junii) was “inactive”, the Activity (Candida albicans) was “inactive” and the Activity (Staphylococcus aureus [1]) was “Active”. For the same compound, the Activity (Staphylococcus aureus [2]) was “Active”, the Activity (Escherichia coli [3]) was “Active” and the Activity (Staphylococcus aureus [4]) was “Active”. The Activity (Escherichia coli [5]) was “Active”, the Activity (Escherichia coli [6]) was “Active” and the Activity (Escherichia coli [7]) was “Active”. For the same compound, the Activity (Escherichia coli [8]) was “Active”, the Activity (Staphylococcus aureus [9]) was “Active” and the Activity (Escherichia coli [10]) was “Active”. For the same compound, the Activity (Staphylococcus aureus [11]) was “Active”, the Activity (Mus musculus [12]) was “Active” and the Activity (Mus musculus [13]) was “Active”. The Activity (Mus musculus [14]) was “inactive”, the Activity (Mus musculus [15]) was “inactive” and the Activity (Peritoneal macrophage [16]) was “Dose-Dependent Effect”. The Activity [17] was “inactive”, the Activity (Mus musculus [18]) was “inactive” and the Activity (Peritoneal macrophage [19]) was “inactive”. The OD [20] was 0.102, the Activity [21] was “Dose-Dependent Effect” and the Activity (Neutrophil [22]) was “inactive”. For the same compound, the Activity (Neutrophil [23]) was “inactive”, the Activity (Neutrophil [24]) was “inactive” and the Activity [25] was “Active”. For the same compound, the inhibition (Mus musculus [26]) was “Active”, the Activity (Mus musculus [27]) was “Active” and the Activity (Mus musculus [28]) was “Active”.
